Reference: paper PMC6263544, “Second-generation pterocarpanquinones: synthesis and antileishmanial activity” (The Journal of Venomous Animals and Toxins Including …, 2018)

Legend:
[1] = tested on: L. infantum promastigotes; test: Antipromastigote test, L. infantum; type: cell-based, Leishmania infantum; conditions: Leishmania infantum; 72 h, resazurin, Mean ± SEM; read-out: L. infantum Promastigote IC50
Procedure: Leishmania infantum (MHOM/MA67ITMAP263) parasites were isolated from female BALB/c mice infected and cultured at 26 °C in Schneider’s insect medium supplemented with 20% HIFCS, streptomycin at 100 μg/ml and penicillin at 100 U/ml. New cultures of promastigotes were obtained from infected Balb/C mice.
(§1) Leishmania promastigotes of three species were incubated in 96-well plates (Nunc, Roskilde, Denmark) under the conditions described above in either the absence or presence of different concentrations of pterocarpanquinones 2a-f (0-100 μM). A stock solution of the compounds was prepared at 50 mM in dimethylsulfoxide (Sigma Aldrich). The maximum solvent concentration used in the assays was 0.4% in a final volume per well of 200 μL. The cultures were initiated with 1.0 × 10^6 cells/ml and maintained at 26 °C for 72 h. Inhibition of parasitic growth was determined by cell viability indicator, resazurin [23], with excitation λ = 560 nm and emission λ = 590 nm or the number of parasites was then counted in a Neubauer chamber (experiments with L. braziliensis). The 50% inhibitory concentration (IC50) was determined by nonlinear regression analysis in the software GraphPad Prism 5.

[2] = tested on: intracellular amastigotes of L. amazonensis; test: Antiamastigote test, L. amazonensis in mouse peritoneal macrophages; type: cell-based, Leishmania amazonensis; conditions: for L. amazonensis SI (Selective Index): CC50 in Macrophages/IC50 in intracellular amastigotes; for IC50: Leishmania amazonensis, Peritoneal macrophage, intracellular amastigotes in mouse peritoneal macrophages, 72 h, infection index, Mean ± SEM, read-out: L. amazonensis Amastigote IC50
Procedure: (§2) For the test against intracellular amastigotes of L. amazonensis and L. infantum, resident peritoneal macrophages (swiss mouse) were plated in RPMI (Sigma-Aldrich) at 2 × 10^6/mL (0.4 mL/well) in Lab-Tek eight-chamber slides (Nunc, Roskilde, Denmark) and incubated at 37 °C in 5% CO2 for 1 h. Stationary-phase L. amazonensis and L. infantum promastigotes were added at respective parasite/macrophage ratios of 3:1 and 5:1 for 4 h. After washing three times, pterocarpanquinones 2a-f at various concentrations were added for 72 h. Next, the slides were stained using an Instant Prov hematological dye system (Newprov, Curitiba, Brazil). The number of amastigotes was determined by counting at least 100 macrophages per sample.
(§3) The results were expressed as an infection index (% infected cells×number of amastigotes/total number of macrophages). The 50% inhibitory concentration (IC50) was determined by nonlinear regression analysis in the software GraphPad Prism 5.

[3] = tested on: intracellular amastigotes of L. infantum; test: Antiamastigote test, L. infantum in mouse peritoneal macrophages; type: cell-based, Leishmania infantum; conditions: 72 h; for IC50: Leishmania infantum, Peritoneal macrophage, intracellular amastigotes in mouse peritoneal macrophages, infection index, Mean ± SEM, read-out: L. infantum Amastigote IC50
Procedure: as §2, §3

[4] = tested on: L. braziliensis promastigotes; test: Antipromastigote test, L. braziliensis; type: cell-based; conditions: Leishmania braziliensis; 72 h, parasites counted in Neubauer chamber, Mean ± SEM; read-out: L. braziliensis Promastigote IC50
Procedure: L. braziliensis (MCAN/BR/98/R619) was routinely isolated from hamster lesions and maintained as promastigotes in Schneider’s insect medium containing 20% HIFCS and 100 μg/ml gentamicin (Schering-Plough). New cultures of promastigotes were obtained from an infected hamster.
as §1

[5] = tested on: promastigotes of L. infantum; test: Mitochondrial membrane potential (ΔΨm) test (rhodamine 123, flow cytometry); type: cell-based, Leishmania infantum; conditions: 4 h; for Δѱm index of variation (IV): Rh123, IV = (MT − MC)/MC, negative = depolarization, mean ± SD
Procedure: To determine the effect of pterocarpanquinones 2a-f on the ΔΨm, promastigotes of L. infantum (5 × 10^6 cells/mL) were incubated in the presence of 0–5 μM of derivatives at 26 °C. After 4 h, the parasites were incubated for 15 min with 10 μg/mL rhodamine 123 (Rh123) (Sigma-Aldrich). Data acquisition of 10,000 events and analysis were performed using the flow cytometer FACSCalibur (Becton-Dickinson, Rutherford, NJ, USA). Alteration in ΔΨm was quantified using an index of variation (IV) obtained by the eq. IV = (MT − MC)/MC [24], where MT is the median of the fluorescence of Rh123 for treated parasites and MC is the median of the fluorescence of the control parasites. Negative IV values correspond to depolarization of the mitochondrial membrane. The FCCP (Carbonyl cyanide-p-Trifluoromethoxyphenylhydrazone) 20 μM was used as positive control.

[6] = tested on: L. amazonensis promastigotes; test: Antipromastigote test, L. amazonensis; type: cell-based, Leishmania amazonensis; conditions: Leishmania amazonensis; 72 h, resazurin, Mean ± SEM; read-out: L. amazonensis Promastigote IC50
Procedure: New cultures of promastigotes were obtained from infected Balb/C mice. […] A stock solution of the compounds was prepared at 50 mM in dimethylsulfoxide (Sigma Aldrich). The maximum solvent concentration used in the assays was 0.4% in a final volume per well of 200 μL. The cultures were initiated with 1.0 × 10^6 cells/ml and maintained at 26 °C for 72 h. Inhibition of parasitic growth was determined by cell viability indicator, resazurin [23], with excitation λ = 560 nm and emission λ = 590 nm or the number of parasites was then counted in a Neubauer chamber (experiments with L. braziliensis).

[7] = Macrophage toxicity test (resazurin); type: cell-based, Swiss mice; conditions: mouse; peritoneal macrophages of Swiss mice, 72 h, resazurin, Mean ± SEM; read-out: Murine Macrophage CC50
Procedure: (§4) To evaluate the toxicity of pterocarpanquinones 2a-f, peritoneal macrophages of Swiss mice (2 × 10^6/mL) were incubated with pterocarpanquinones (1.25–100 μM) for 72 h at 37 °C/5% CO2. Viability was evaluated with resazurin assay as described for the antipromastigote test. The 50% cytotoxicity concentration (CC50) was determined by nonlinear regression analysis in the software GraphPad Prism 5.

[8] = tested on: intracellular amastigotes of L. braziliensis; test: Antiamastigote test, L. braziliensis in golden hamster macrophages; type: cell-based; conditions: for L. braziliensis SI (Selective Index): CC50 in Macrophages/IC50 in intracellular amastigotes; for IC50: Leishmania braziliensis, Peritoneal macrophage, intracellular amastigotes in golden hamster peritoneal macrophages, 72 h, infection index, Mean ± SEM, read-out: L. braziliensis Amastigote IC50
Procedure: Macrophages of golden hamsters were used in assays against intracellular amastigotes of L. braziliensis due to the natural resistance of mice. Resident macrophages were obtained from the peritoneal cells of golden hamsters after a peritoneal injection of 10 mL of Dulbecco’s Modified Eagle’s medium (DMEM) (Sigma-Aldrich). The peritoneal macrophages were plated onto glass coverslips placed within the wells of a 24-well culture plate and incubated at 37 °C in 5% CO2 for 1 h. After removing the nonadherent cells, the monolayers were infected with stationary-phase L. braziliensis promastigotes at a 5:1 parasite/macrophage ratio for 4 h. The infected macrophages were washed and incubated with several pterocarpanquinone concentrations (0-25 μM) for 72 h. The monolayers were then stained with Giemsa, and at least 100 infected macrophages per sample were counted under optical microscopy.
as §3

[9] = tested on: promastigotes of L. infantum; test: Measurement of reactive oxygen species (H2DCFDA); type: cell-based, Leishmania infantum; conditions: 1.25–5.0 μM; for ROS production, dependence on concentration: 4 h
Procedure: Intracellular ROS levels were measured in treated and untreated cells as described previously. Briefly, 1 × 10^7 promastigotes/mL of L. infantum were incubated in Schneider’s insect medium supplemented with 20% HIFCS at 26 °C with concentrations of pterocarpanquinones 2a-f ranging from 0 to 5 μM in the presence of 20 μM H2DCFDA (Molecular Probes, Eugene, OR, USA). The fluorescence was monitored at 1 h intervals for 4 h using 485 and 530 nm as excitation and emission wavelengths, respectively, using the spectrofluorometer Spectra Max Gemini XPS (Molecular Devices, Silicon Valley, CA, USA). Antimycin A 10 μM was used as positive control.

[10] = tested on: peritoneal macrophages of Swiss mice; test: Macrophage toxicity test (resazurin); type: cell-based
Procedure: as §4

SMILES | IC50 [1] [nM] | L. amazonensis SI (Selective Index) [2] | IC50 [2] [nM] | IC50 [3] [µM] | IC50 [4] [µM] | Δѱm index of variation (IV) ([5]; 1.25 μM) | Δѱm index of variation (IV) ([5]; 2.5 μM) | IC50 [6] [nM] | CC50 at 72 h [7] [µM] | L. braziliensis SI (Selective Index) [8] | IC50 [8] [µM] | effect on ΔΨm (in words) ([5]; rhodamine 123, flow cytometry) | ROS production, dependence on concentration [9] | Early ROS production after 4 h of treatment ([9]; compared with control, listed as 2c) | increased cytotoxicity when compared to 2b ([10]; macrophages) [times] | activity against L. infantum amastigotes (in words) ([3]; intracellular amastigotes) | fold higher CC50 than LQB-118 (less cytotoxic) ([10]; peritoneal macrophages, CC50 77.7 μM vs 18.46 μM) [fold]
O=C1C2=C(C(=O)c3ccccc31)[C@H]1CCc3ccccc3[C@H]1O2 (relative stereo) [LQB 187 (2a)] | 1200 ± 200 | 54.7 | 900 ± 100 | > 25 | 23.1 ± 1.63 | −0.103 ± 0.16 | −0.368 ± 0.03 | 1050 ± 210 | 49.3 ± 1.1 | 5.0 | 9.85 ± 1.37 |  |  |  |  |  | 
COc1ccc2c(c1)CC[C@@H]1C3=C(O[C@H]21)C(=O)c1ccccc1C3=O (relative stereo) [LQB 474 (2e)] | 2200 ± 300 | 5.74 | 2600 ± 800 | > 10 | 12.3 ± 0.45 | −0.582 ± 0.1 | −0.701 ± 0.01 | 500 ± 70 | 14.9 ± 1.43 | 1.74 | 8.53 ± 1.12 | greater depolarization | only increased ROS production when the parasite was incubated with the highest concentration of 5 μM |  |  |  | 
O=C1C2=C(C(=O)c3ccccc31)[C@H]1COc3ccc(Cl)cc3[C@H]1O2 [LQB 236 (2c)] | 1800 ± 300 | 73.16 | 600 ± 130 | > 25 | 17.9 ± 1.12 | −0.360 ± 0.16 | −0.258 ± 0.17 | 1150 ± 180 | 43.9 ± 0.6 | 5.26 | 8.34 ± 1.47 |  | only increased ROS production when the parasite was incubated with the highest concentration of 5 μM | induction of increased ROS production | 2.6 |  | 
O=C1C2=C(C(=O)c3ccccc31)[C@H]1COc3cc4c(cc3[C@H]1O2)OCO4 [LQB 168 (2d)] | 2000 ± 400 | 172.6 | 450 ± 60 | > 50 | 28.2 ± 1.61 | −0.369 ± 0.08 | −0.194 ± 0.18 | 1370 ± 40 | 77.7 ± 1.1 | 11.03 | 7.04 ± 2.29 |  |  |  |  | no significant activity | 4.2
